Measurements reported in PubChem BioAssay (NCI).
Values joined by “and” are separate entries in the source; they are usually repeats but may differ in a detail not shown here. Equal entries are not always repeated.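 How tested: cells in 96-well plates exposed to compound for 48 hours at five concentrations. Abbreviation: GI50, concentration required for 50% inhibition of growth. At the TGI there is no net growth.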

What was measured:
Assay in all cases: NCI tumour cell line growth inhibition, 48 h
[1] = tested on: ACHN renal
[2] = tested on: BT-549 breast
[3] = tested on: DU-145 prostate
[4] = tested on: HL-60(TB) leukemia
[5] = tested on: HOP-92 NSCLC
[6] = tested on: MALME-3M melanoma
[7] = tested on: OVCAR-5 ovarian
[8] = tested on: SF-295 CNS
[9] = tested on: UACC-62 melanoma
[10] = tested on: UO-31 renal
[11] = tested on: 786-0 renal
[12] = tested on: A498 renal
[13] = tested on: CAKI-1 renal
[14] = tested on: CCRF-CEM leukemia
[15] = tested on: COLO 205 colon
[16] = tested on: EKVX NSCLC
[17] = tested on: HCC-2998 colon
[18] = tested on: HCT-116 colon
[19] = tested on: HCT-15 colon
[20] = tested on: HOP-62 NSCLC
[21] = tested on: HS 578T breast
[22] = tested on: HT29 colon
[23] = tested on: IGROV1 ovarian
[24] = tested on: K-562 leukemia
[25] = tested on: KM12 colon
[26] = tested on: LOX IMVI melanoma
[27] = tested on: M14 melanoma
[28] = tested on: MCF7 breast
[29] = tested on: MDA-MB-231 breast
[30] = tested on: MDA-MB-435
[31] = tested on: NCI-H226 lung
[32] = tested on: NCI-H23 lung
[33] = tested on: NCI-H460 lung
[34] = tested on: NCI/ADR-RES ovarian
[35] = tested on: OVCAR-4 ovarian
[36] = tested on: OVCAR-8 ovarian
[37] = tested on: PC-3 prostate
[38] = tested on: RPMI-8226 leukemia
[39] = tested on: RXF 393 renal
[40] = tested on: SF-268 CNS
[41] = tested on: SF-539 CNS
[42] = tested on: SK-MEL-2 melanoma
[43] = tested on: SK-MEL-28 melanoma
[44] = tested on: SK-MEL-5 melanoma
[45] = tested on: SK-OV-3 ovarian
[46] = tested on: SNB-19 CNS
[47] = tested on: SNB-75 CNS
[48] = tested on: SR leukemia
[49] = tested on: SW-620 colon
[50] = tested on: T-47D breast
[51] = tested on: TK-10 renal
[52] = tested on: U251 CNS
[53] = tested on: UACC-257 melanoma
[54] = tested on: A549 NSCLC
[55] = tested on: MOLT-4 leukemia
[56] = tested on: NCI-H522 lung
[57] = tested on: SN12C renal

N=C(N)c1ccc(-c2ccc(-c3ccc(Cl)cc3Cl)s2)cc1
GI50 [1]: 1700 nM | TGI [1]: 3.07 µM | GI50 [2]: 2.18 µM | TGI [2]: 6.62 µM | GI50 [3]: 1790 nM | TGI [3]: 3.19 µM | GI50 [4]: 1970 nM | TGI [4]: 4.49 µM | GI50 [5]: 1580 nM | TGI [5]: 3.17 µM | GI50 [6]: 1740 nM | TGI [6]: 3.29 µM | GI50 [7]: 1790 nM | TGI [7]: 3.29 µM | GI50 [8]: 1770 nM | TGI [8]: 3.19 µM | GI50 [9]: 1730 nM | TGI [9]: 3.19 µM | GI50 [10]: 1.58 µM | TGI [10]: 3 µM

O=C(/C=C\c1ccccc1)N1CCc2ccccc2C1
TGI [11]: > 100 µM | TGI [12]: > 100 µM | TGI [1]: > 100 µM | TGI [13]: > 100 µM | TGI [14]: 91.3 µM | TGI [15]: 57.1 µM | TGI [3]: > 100 µM | TGI [16]: > 100 µM | TGI [17]: > 100 µM | TGI [18]: > 100 µM | TGI [19]: > 100 µM | TGI [4]: 83.6 µM | TGI [20]: > 100 µM | TGI [5]: > 100 µM | TGI [21]: > 100 µM | TGI [22]: > 100 µM | TGI [23]: > 100 µM | TGI [24]: 45.8 µM | TGI [25]: > 100 µM | TGI [26]: > 100 µM | TGI [27]: > 100 µM | TGI [28]: > 100 µM | TGI [29]: > 100 µM | TGI [30]: 84.1 µM | TGI [31]: > 100 µM | TGI [32]: 51.9 µM | TGI [33]: > 100 µM | TGI [34]: > 100 µM | TGI [35]: > 100 µM | TGI [36]: > 100 µM | TGI [37]: > 100 µM | TGI [38]: 52.4 µM | TGI [39]: > 100 µM | TGI [40]: > 100 µM | TGI [8]: > 100 µM | TGI [41]: > 100 µM | TGI [42]: 91.3 µM | TGI [43]: > 100 µM | TGI [44]: 39.9 µM | TGI [45]: > 100 µM | TGI [46]: > 100 µM | TGI [47]: > 100000 nM | TGI [48]: 69.1 µM | TGI [49]: > 100 µM | TGI [50]: > 100 µM | TGI [51]: > 100 µM | TGI [52]: > 100 µM | TGI [53]: > 100 µM | TGI [9]: > 100 µM | TGI [10]: > 100 µM

Cc1nc(Nc2ncc(C(=O)Nc3c(C)cccc3Cl)s2)cc(N2CCN(CCO)CC2)n1
GI50 [54]: 49.9 nM [middle of 4 runs] | GI50 [3]: 158 nM [middle of 4 runs] | TGI [3]: > 10 µM and 20 µM and 13.5 µM | GI50 [19]: 792 nM [middle of 4 runs] | GI50 [22]: 19.7 nM and 19.3 nM and 27.2 nM | GI50 [24]: < 10 nM and 2 nM | GI50 [25]: 7.66 µM [middle of 4 runs] | GI50 [26]: 14.2 nM [middle of 4 runs] | GI50 [27]: 3.51 µM [middle of 4 runs] | GI50 [6]: 6.6 µM [middle of 4 runs] | GI50 [29]: 19.7 nM [middle of 4 runs] | GI50 [30]: 5.7 µM [middle of 4 runs] | GI50 [33]: 8.34 µM [middle of 4 runs] | GI50 [34]: 3.2 µM [middle of 4 runs] | GI50 [7]: 38.1 nM [middle of 4 runs] | GI50 [36]: 55.8 nM [middle of 4 runs] | GI50 [40]: 70.4 nM [middle of 4 runs] | GI50 [41]: 53.3 nM [middle of 4 runs] | TGI [43]: 29 µM and > 10 µM and 20 µM | GI50 [47]: < 10 nM and 4.68 nM and < 11.1 nM | TGI [47]: 25.7 nM and 56.3 nM and 58.7 nM | GI50 [51]: 22.2 nM and 10.9 nM and 8.43 nM | GI50 [52]: 3.17 µM [middle of 4 runs] | GI50 [9]: 5.69 µM [middle of 4 runs]

COc1cc2c3c(n(C)c(=O)c2cc1OC)-c1cc2c(cc1/C3=C\CCNCCCN)OCO2
GI50 [11]: 1990 nM | TGI [11]: 12.5 µM | GI50 [54]: 4.53 µM | TGI [54]: > 100 µM | GI50 [1]: 1300 nM | TGI [1]: 6.89 µM | GI50 [2]: 4.65 µM | TGI [2]: 21.1 µM | GI50 [13]: 3.44 µM | TGI [13]: 14.3 µM | GI50 [14]: 686 nM | TGI [14]: 13.4 µM | GI50 [15]: 487 nM | TGI [15]: 15.4 µM | GI50 [16]: 3.83 µM | TGI [16]: 18 µM | GI50 [18]: 1490 nM | TGI [18]: 3.39 µM | GI50 [19]: 16.9 µM | TGI [19]: 39.6 µM | GI50 [4]: 927 nM | TGI [4]: 8.03 µM | GI50 [20]: 3.85 µM | TGI [20]: 15.6 µM | GI50 [5]: 1450 nM | TGI [5]: 11.1 µM | GI50 [21]: 2840 nM | TGI [21]: 9.52 µM | GI50 [22]: 1860 nM | TGI [22]: > 100 µM | GI50 [23]: 1820 nM | TGI [23]: > 100 µM | GI50 [24]: 2080 nM | TGI [24]: 12.1 µM | GI50 [25]: 1410 nM | TGI [25]: 10.5 µM | GI50 [27]: 5.32 µM | TGI [27]: 20.5 µM | GI50 [6]: 863 nM | TGI [6]: 4.02 µM | GI50 [28]: 2770 nM | TGI [28]: 13.4 µM | GI50 [29]: 580 nM | TGI [29]: 3.05 µM | GI50 [30]: 2480 nM | TGI [30]: 15.9 µM | GI50 [55]: 364 nM | TGI [55]: 44.4 µM | GI50 [31]: 987 nM | TGI [31]: 5.02 µM | GI50 [32]: 2670 nM | TGI [32]: 12.4 µM | GI50 [33]: 853 nM | TGI [33]: 20.3 µM | GI50 [56]: 1670 nM | TGI [56]: 25.5 µM | GI50 [34]: > 100 µM | TGI [34]: > 100 µM | GI50 [35]: 1040 nM | TGI [35]: 7.56 µM | GI50 [7]: 3040 nM | TGI [7]: 13.4 µM | GI50 [36]: 2980 nM | TGI [36]: 44.6 µM | GI50 [37]: 2090 nM | TGI [37]: 10.2 µM | GI50 [39]: 1060 nM | TGI [39]: 14.5 µM | GI50 [40]: 2430 nM | TGI [40]: 11.8 µM | GI50 [41]: 1650 nM | TGI [41]: 9.95 µM | GI50 [42]: 5.09 µM | TGI [42]: > 100 µM | GI50 [43]: 2870 nM | TGI [43]: 91.8 µM | GI50 [45]: 2.73 µM | TGI [45]: 11.7 µM | GI50 [57]: 1180 nM | TGI [57]: 8.41 µM | GI50 [46]: 1420 nM | TGI [46]: 14.7 µM | GI50 [47]: 11400 nM | TGI [47]: > 100000 nM | GI50 [50]: 2640 nM | TGI [50]: 15.3 µM | GI50 [51]: 5290 nM | TGI [51]: 22.4 µM | GI50 [52]: 470 nM | TGI [52]: 3.44 µM | TGI [53]: 39.7 µM | GI50 [10]: 42.5 µM | TGI [10]: > 100 µM

N=C(N)c1ccc(-c2ccc(-c3ccc(Cl)c(Cl)c3)s2)nc1
GI50 [2]: 3.18 µM | TGI [2]: 31.6 µM | GI50 [4]: 1890 nM | TGI [4]: 4.39 µM | GI50 [31]: 1940 nM | TGI [31]: 4.63 µM | GI50 [42]: 3.43 µM | TGI [42]: 15.2 µM | GI50 [45]: 8.06 µM | TGI [45]: 31.8 µM | GI50 [53]: 2140 nM | TGI [53]: 4.77 µM
